“Also recorded” adds a separate entry of the source. Read-outs that look alike come from different tables or passages of the source. Marks after values point to notes of the source that are not given here.
Legend:
UUO model = system: UUO model; design: method as in PMID 37310976; conditions: cited from earlier work
DKD = system: DKD; design: method as in PMID 30526503, PMID 26180085, PMID 30024858; conditions: cited from earlier work
NASH [1] = system: NASH; design: method as in PMID 28218919, PMID 31996485; conditions: cited from earlier work
NASH mouse model [2] = experiment: CCL4- and HFD-induced NASH mouse model; assay type: in vivo, C57BL/6J mice; conditions: CS17919 20 mg/kg
Method: 41 C57BL/6J mice, male, 6–8 weeks of age, were purchased from Chengdu Dossy Experimental Animal Co. (Chengdu, China), 9 of which were assigned in the control group and fed a chow diet. The other 32 mice were fed a HFD (D12429, Research diet, USA). After 8 weeks of feeding, these mice with HFD were subcutaneously injected with CCL4 (0.1 mL/kg) twice a week. These mice were then randomly subdivided into 4 groups according to serum ALT and AST at week 12: Model (n = 8), CS17919 (n = 8), CS27109 (n = 8), and Combination (n = 8). Both the control and model groups were given the solvent mentioned above, administered orally twice a day, while CS17919 was administered twice a day by gavage at a dose of 20 mg/kg and CS27109 was administered twice a day by gavage at a dose of 10 mg/kg for 4 weeks. The body weight of each mouse was measured every 3 days during the drug intervention. All animals were fasted overnight after the last drug administration and blood was collected to isolate serum for biochemical tests including AST, ALT, TG, TC, HDL‐c, and LDL‐c. The liver of each mouse was removed, the right lobe of which was fixed in 10% formalin solution for pathological study.
H&E staining was applied to determine scores for liver steatosis, ballooning and inflammation in the NASH model. Thin 4 μm paraffin sections of each sample were used to assess liver histology, following a standard protocol. Paraffin sections were deparaffinized and placed in Hematoxylin staining solution for 3–8 min before using tap water to elute excess Hematoxylin. Sections were stained in Eosin stain for about 1–3 min and rinsed with tap water. Finally, the slices were dehydrated and sealed. Score ranges were 0–3 for liver steatosis, 0–2 for ballooning and 0–12 for inflammation (which included scores of 0–3 for portal inflammation, 0–3 for lobular inflammation, 0–3 for piecemeal necrosis, and 0–3 for bridging necrosis).
Sirius Red staining was applied to determine liver fibrosis in the NASH model. Thin 4 μm paraffin sections of each sample were used in this study followed the standard procedure. Sections were first stained with Hematoxylin for 5–10 min, then washed and stained with Sirius Red stain about 15–30 min. Finally, the sections were rinsed and sealed. Image‐Pro Plus 6.0 was used for analyzing the area of liver fibrosis and the percentage of the fibrosis area in each section was calculated.

CYP 2B6 = CYP 2B6 (Homo sapiens, UniProt P20813); experiment: CYP inhibition in vitro; assay type: in vitro ADME
Chain of CYP 2B6 (P20813 whole entry): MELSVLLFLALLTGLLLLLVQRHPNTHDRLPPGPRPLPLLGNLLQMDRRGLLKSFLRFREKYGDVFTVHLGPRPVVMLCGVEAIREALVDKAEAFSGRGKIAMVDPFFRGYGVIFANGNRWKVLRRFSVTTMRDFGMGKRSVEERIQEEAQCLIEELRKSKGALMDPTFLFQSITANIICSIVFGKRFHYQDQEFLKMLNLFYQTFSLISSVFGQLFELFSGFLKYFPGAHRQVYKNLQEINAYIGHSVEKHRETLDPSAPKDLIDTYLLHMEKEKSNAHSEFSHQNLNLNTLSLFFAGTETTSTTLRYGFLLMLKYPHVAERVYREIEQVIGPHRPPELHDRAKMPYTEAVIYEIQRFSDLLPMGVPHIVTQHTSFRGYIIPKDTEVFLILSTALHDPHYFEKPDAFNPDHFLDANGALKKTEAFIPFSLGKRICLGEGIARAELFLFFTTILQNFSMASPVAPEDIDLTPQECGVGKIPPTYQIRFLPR

CYP 2C8 = CYP 2C8 (Homo sapiens, UniProt P10632); experiment: CYP inhibition in vitro; assay type: in vitro ADME
Chain of CYP 2C8 (P10632 whole entry): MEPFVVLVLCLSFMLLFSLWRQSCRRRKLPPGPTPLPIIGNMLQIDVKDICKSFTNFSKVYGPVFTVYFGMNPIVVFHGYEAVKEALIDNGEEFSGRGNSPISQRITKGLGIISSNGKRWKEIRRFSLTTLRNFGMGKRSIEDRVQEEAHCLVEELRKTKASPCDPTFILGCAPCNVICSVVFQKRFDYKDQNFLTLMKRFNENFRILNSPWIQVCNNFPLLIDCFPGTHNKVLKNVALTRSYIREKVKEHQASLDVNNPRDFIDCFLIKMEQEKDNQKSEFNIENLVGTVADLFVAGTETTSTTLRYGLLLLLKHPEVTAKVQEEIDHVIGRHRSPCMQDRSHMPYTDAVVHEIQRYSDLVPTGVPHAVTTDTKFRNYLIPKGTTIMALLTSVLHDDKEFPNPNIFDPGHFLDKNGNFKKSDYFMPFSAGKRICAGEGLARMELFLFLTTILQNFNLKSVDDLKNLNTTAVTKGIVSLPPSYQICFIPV

CYP 2C9 = CYP 2C9 (Homo sapiens, UniProt P11712); experiment: CYP inhibition in vitro; assay type: in vitro ADME
Chain of CYP 2C9 (P11712 whole entry): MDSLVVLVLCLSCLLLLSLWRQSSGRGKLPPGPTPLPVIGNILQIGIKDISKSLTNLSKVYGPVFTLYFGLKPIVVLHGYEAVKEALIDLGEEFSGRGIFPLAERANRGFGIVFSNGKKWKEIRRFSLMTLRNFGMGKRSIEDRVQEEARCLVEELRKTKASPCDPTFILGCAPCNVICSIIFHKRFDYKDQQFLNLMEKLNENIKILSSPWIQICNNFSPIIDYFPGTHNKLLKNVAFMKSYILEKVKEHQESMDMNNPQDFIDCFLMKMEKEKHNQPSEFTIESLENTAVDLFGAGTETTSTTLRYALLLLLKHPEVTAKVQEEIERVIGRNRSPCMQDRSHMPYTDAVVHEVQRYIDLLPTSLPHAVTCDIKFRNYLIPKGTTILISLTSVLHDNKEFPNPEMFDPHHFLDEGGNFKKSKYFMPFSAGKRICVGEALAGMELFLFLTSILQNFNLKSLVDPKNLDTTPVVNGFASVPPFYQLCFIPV

CYP 2C19 = CYP 2C19 (Homo sapiens, UniProt P33261); experiment: CYP inhibition in vitro; assay type: in vitro ADME
Chain of CYP 2C19 (P33261 whole entry): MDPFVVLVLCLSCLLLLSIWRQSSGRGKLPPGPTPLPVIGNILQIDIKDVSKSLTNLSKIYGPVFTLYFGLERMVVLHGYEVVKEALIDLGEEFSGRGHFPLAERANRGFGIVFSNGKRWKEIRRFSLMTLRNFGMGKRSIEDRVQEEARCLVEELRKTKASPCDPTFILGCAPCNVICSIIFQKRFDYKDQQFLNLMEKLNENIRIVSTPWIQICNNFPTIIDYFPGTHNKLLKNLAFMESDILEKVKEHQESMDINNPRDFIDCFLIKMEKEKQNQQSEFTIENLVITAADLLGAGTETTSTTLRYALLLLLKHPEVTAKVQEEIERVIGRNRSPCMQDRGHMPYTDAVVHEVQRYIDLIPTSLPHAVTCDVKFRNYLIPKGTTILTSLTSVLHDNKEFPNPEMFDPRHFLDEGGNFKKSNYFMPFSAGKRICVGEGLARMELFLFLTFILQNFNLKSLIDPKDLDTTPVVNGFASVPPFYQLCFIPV

CYP 2D6 = CYP 2D6 (Homo sapiens, UniProt P10635); experiment: CYP inhibition in vitro; assay type: in vitro ADME
Chain of CYP 2D6 (P10635 whole entry): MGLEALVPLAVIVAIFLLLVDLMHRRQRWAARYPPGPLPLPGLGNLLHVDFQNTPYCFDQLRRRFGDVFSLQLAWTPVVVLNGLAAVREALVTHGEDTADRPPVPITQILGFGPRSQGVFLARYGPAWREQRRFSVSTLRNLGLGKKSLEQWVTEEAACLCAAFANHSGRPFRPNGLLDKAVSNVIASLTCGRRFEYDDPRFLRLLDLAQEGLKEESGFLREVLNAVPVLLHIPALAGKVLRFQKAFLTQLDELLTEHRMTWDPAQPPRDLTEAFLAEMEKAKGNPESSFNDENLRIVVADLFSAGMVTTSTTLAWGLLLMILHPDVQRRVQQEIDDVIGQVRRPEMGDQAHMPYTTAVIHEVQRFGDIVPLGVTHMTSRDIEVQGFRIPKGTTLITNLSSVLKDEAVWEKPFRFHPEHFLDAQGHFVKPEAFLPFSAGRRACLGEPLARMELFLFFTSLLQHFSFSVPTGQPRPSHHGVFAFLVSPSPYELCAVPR

[3] = Metabolic stability in liver microsomes; assay type: in vitro ADME; conditions: Human
[4] = Metabolic stability in liver microsomes; assay type: in vitro ADME; conditions: Rat
[5] = Metabolic stability in liver microsomes; assay type: in vitro ADME; conditions: Mouse
CYP 1A2 = CYP 1A2 (Homo sapiens, UniProt P05177)
Chain of CYP 1A2 (P05177 whole entry): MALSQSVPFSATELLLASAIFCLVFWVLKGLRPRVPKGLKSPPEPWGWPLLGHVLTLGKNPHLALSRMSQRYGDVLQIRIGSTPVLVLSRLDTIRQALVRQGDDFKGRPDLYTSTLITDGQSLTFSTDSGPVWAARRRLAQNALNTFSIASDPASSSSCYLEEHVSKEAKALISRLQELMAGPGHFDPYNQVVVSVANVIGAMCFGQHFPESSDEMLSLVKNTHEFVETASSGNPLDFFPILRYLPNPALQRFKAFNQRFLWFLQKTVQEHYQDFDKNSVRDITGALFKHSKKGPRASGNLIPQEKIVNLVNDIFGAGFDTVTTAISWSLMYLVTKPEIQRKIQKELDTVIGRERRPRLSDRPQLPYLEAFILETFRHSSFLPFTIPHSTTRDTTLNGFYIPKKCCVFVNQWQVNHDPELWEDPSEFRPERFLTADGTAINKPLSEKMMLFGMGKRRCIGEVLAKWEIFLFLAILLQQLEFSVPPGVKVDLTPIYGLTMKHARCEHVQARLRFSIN

CYP3A4 [6] = biological target: T1, CYP3A4 (Homo sapiens, UniProt P08684)
T1 sequence (P08684 whole entry): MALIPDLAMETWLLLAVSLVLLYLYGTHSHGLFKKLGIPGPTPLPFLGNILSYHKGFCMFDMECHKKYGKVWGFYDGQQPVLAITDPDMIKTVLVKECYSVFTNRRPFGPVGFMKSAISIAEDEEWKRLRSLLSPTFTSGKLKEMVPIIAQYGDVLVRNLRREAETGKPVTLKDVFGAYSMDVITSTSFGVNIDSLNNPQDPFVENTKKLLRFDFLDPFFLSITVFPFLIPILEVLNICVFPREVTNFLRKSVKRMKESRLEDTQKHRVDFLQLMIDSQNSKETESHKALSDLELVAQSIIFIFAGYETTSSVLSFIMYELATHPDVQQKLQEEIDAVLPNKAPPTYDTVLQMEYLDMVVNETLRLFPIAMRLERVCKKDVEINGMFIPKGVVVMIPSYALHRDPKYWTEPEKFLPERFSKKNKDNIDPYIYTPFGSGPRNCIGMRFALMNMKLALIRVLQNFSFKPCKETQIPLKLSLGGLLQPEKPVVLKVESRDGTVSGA

NASH mouse model [7] = experiment: CCL4- and HFD-induced NASH mouse model; assay type: in vivo, C57BL/6J mice; conditions: data not shown; model group 5/9
CYP3A4 [8] = biological target: T1, CYP3A4; experiment: CYP inhibition in vitro; conditions: read-out: CYP3A4 (Midazolam) inhibition IC50; substrate Midazolam
L02 cells = experiment: Cell protection in PA-stimulated L02 cells (Cell Titer-Glo viability); assay type: cell-based, human; conditions: 50 μmol/L PA, 72 h
Method: L02 cells were cultured in DMEM medium (Gibco, 11 965 092, Carlsbad, CA, USA) supplemented with 20% FBS and 1× penicillin–streptomycin. L02 cells were inoculated in two 96‐well plates at 1E4 cells/well (200 μL). The following day, the cells were stimulated with 50 μmol/L PA (dissolved in ethanol to make a 200× stock solution and then added to the medium) and simultaneously incubated with different concentrations of CS17919 and GS‐4997 (CS17919 and GS‐4997 stock solutions were added to the well plates to reach a final concentration of 10–0.3 μmol/L). After 72 h of incubation, the original medium was removed, followed by the addition of 100 μL of new DMEM medium and 60 μL of Cell Titer‐Glo reagent per well. The cells were incubated for 5 min in the dark, and then transferred to a black permeable plate for detection using an enzyme plate reader (Tecan spark, Grödig, Austria).

MRC‐5 = experiment: MTS cytotoxicity assay, MRC-5; assay type: cell-based, human; conditions: 72 h
Method: (§1) Human embryonic kidney cells (HEK‐293A), human hepatocellular carcinoma cells (HUH7), human embryonic liver diploid cells (CCC‐HEL‐1) and human embryonic lung cells (MRC‐5) were selected for the cytotoxicity study of both drugs, using the MTS assay protocol. Cells were cultured at 37°C with 5% CO2 using an appropriate medium. […] After 72 h of incubation, 30 μL of MTS solution was added to each well, and the cells were then incubated for 2–4 h in the dark. The absorbance value of each well at 490 nm was measured using an enzymatic plate reader and the IC50 for each drug and each cell line was calculated. Cell viability and cytoxicity experiments were repeated three times.

CCC‐HEL‐1 = experiment: MTS cytotoxicity assay, CCC-HEL-1; assay type: cell-based, human; conditions: 72 h
Method: as §1

UUO mouse model = UUO mouse model of kidney injury and fibrosis; assay type: in vivo, C57BL/6J mice; conditions: CS17919 10 and 60 mg/kg, GS-4997 30 mg/kg, gavage twice daily, 11 days
Method: 55 C57BL/6J mice, male, 6–8 weeks old were purchased from Chengdu Pharmachem Biotechnology Co. (Chengdu, China) and randomly divided into 5 groups according to their body weight: Sham (n = 10), Model (n = 15), CS17919L (10 mg/kg, n = 10), CS17919H (60 mg/kg, n = 10), and GS‐4997 (30 mg/kg, n = 10). The mice were anesthetized and fixed on the operating table, and the abdominal cortex and muscles were cut in the middle of the right side of the abdomen, and the ureter was searched for along the renal hilum. The ureter was separated using a glass split‐needle and ligated at the opening of the renal pelvis and the upper 1/3 of the ureter, and the ureter was cut between the two ligatures. Finally, the muscle and skin were closed with consecutive sutures, and animals were kept under observation until they awoke. Both the Sham and the Model group received solvent (0.2% CMC‐Na + 0.1% Tween‐80) orally twice daily. CS17919 and GS‐4997 were administered by gavage twice daily at the corresponding doses for 11 days. All treatments were started one day before surgical operation. All mice were sacrificed one day after administration with overnight fasting. Blood was collected, and serum was isolated for the analysis of urea nitrogen and creatinine. The kidney of each mouse was removed, weighed and fixed in 10% formalin solution for pathological study.
Masson staining was applied to determine kidney fibrosis in the UUO model. Thin 4 μm paraffin sections of each sample were used in this study, which followed the standard procedure. The sections were stained with Hematoxylin staining solution for 5–10 min and then washed, followed by staining with Ponceau S‐acid fuchsin stain for around 5–10 min. The sections were treated with 1% phosphomolybdic acid and Aniline Blue solution, and finally dehydrated stepwise in alcohol and sealed. VIS7.0 software was used to analyze the area of kidney fibrosis and the percentage of the fibrosis area in the scanning area was calculated.

NASH [9] = system: NASH; design: method as in PMID 32147362; conditions: cited from earlier work
diabetic kidney disease = system: diabetic kidney disease; design: method as in PMID 25531162; conditions: cited from earlier work
[10] = system: 5/6 nephrectomy (5/6 Nx) rat model; design: method as in PMID 35919527; conditions: GS-4997 alone; cited from earlier work
[11] = 4 weeks, CS27109 10 mg/kg twice a day
[12] = serum after 4 weeks, CS27109 10 mg/kg, gavage twice a day, mean ± SD

For `O=C(Nc1cccc(-c2nncn2C2CC2)c1)c1cc(-n2cnc(C3CC3)c2)ccn1` [GS‐444217], the Kidney fibrosis (UUO model) is listed as “attenuate kidney fibrosis”, the Glomerular sclerosis progression (DKD) is listed as “halt the progression of glomerular sclerosis” and the NASH symptoms (NASH [1]) is listed as “significantly ameliorated NASH symptoms”.
For `N#Cc1nn(-c2cc(Br)c(Oc3n[nH]c(=O)c4ccccc34)c(Br)c2)c(=O)[nH]c1=O` [CS27109], the “Liver fibrosis area (Sirius Red staining)” value (NASH mouse model [2]; [11]) was “improving all pathologic features of NASH”, the “Liver inflammation score (H&E)” value (NASH mouse model [2]; [11]) was “improving all pathologic features of NASH” and the “Liver steatosis and ballooning scores (H&E)” value (NASH mouse model [2]; [11]) was “improving all pathologic features of NASH”. For the same compound, the ALT (NASH mouse model [2]; [12]) was 68.7 ± 18.8^c U/L, the AST (NASH mouse model [2]; [12]) was 113.0 ± 36.2^a U/L and the “HDL‐C” value (NASH mouse model [2]; [12]) was 0.665 ± 0.284 mmol/L. The “LDL‐C” value (NASH mouse model [2]; [12]) was 0.040 ± 0.026^b mmol/L, the TC (NASH mouse model [2]; [12]) was 0.785 ± 0.277 mmol/L and the TG (NASH mouse model [2]; [12]) was 0.329 ± 0.341 mmol/L. The IC50 (CYP 2B6) was > 10 µM, the IC50 (CYP 2C8) was > 10 µM and the IC50 (CYP 2C9) was 5.1 µM. The IC50 (CYP 2C19) was > 10 µM, the IC50 (CYP 2D6) was > 10 µM and the “Clint in liver microsomes” value [3] was 0.83 mL/min/kg. For the same compound, the “T1/2 in liver microsomes” value [3] was “>120 min”, the “Clint in liver microsomes” value [4] was 4.24 mL/min/kg and the “T1/2 in liver microsomes” value [4] was “>120 min”. The “Clint in liver microsomes” value [5] was 7.72 mL/min/kg, the “T1/2 in liver microsomes” value [5] was “>120 min” and the IC50 (CYP 1A2) was > 10 µM. The IC50 (CYP3A4 [6]) was > 10 µM, the “Occurrence of hepatocellular carcinoma (mice affected/group)” value (NASH mouse model [7]) was 2/8 and the IC50 (CYP3A4 [8]) was > 10 µM.
For `Cc1cc(F)c(C(=O)Nc2cccc(-c3nncn3C(C)C)n2)cc1-n1cnc(C2CC2)c1` [GS‐4997, Selonsertib, reference compound], the “Cell protection (cell viability normalized to PA-treated cells)” value (L02 cells; 0.32–10 μmol/L drug) was “only protected against cell death at lower doses”, the “Cell viability at high drug doses” value (L02 cells; 5 and 10 μmol/L drug) was “reduced cell viability in a dose‐dependent manner” and the “Cytotoxicity (cell viability)” value (MRC‐5) was “reduced cell viability at higher doses; also recorded: high‐dose cytotoxicity”. The “Cytotoxicity (cell viability)” value (CCC‐HEL‐1) was “reduced cell viability at higher doses”, the “Area of kidney fibrosis (Masson staining)” value (UUO mouse model) was “tendency to reduce” and the “Serum creatinine vs model group” value (UUO mouse model) was “non‐significant tendency to decrease”. For the same compound, the “Serum urea nitrogen vs model group” value (UUO mouse model) was “significantly reduced”, the “Outcome of phase III NASH trial” value (NASH [9]) was “failed” and the “Outcome of DKD clinical trial” value (diabetic kidney disease) was “did not meet its primary endpoint”. The “CKD-related characteristics and kidney function” value [10] was “barely improved CKD‐related characteristics, but preserved kidney function”.

From PMC11798738, “Targeting ASK1 by CS17919 alleviates kidney‐ and liver‐related diseases in murine models” (Animal Models and Experimental Medicine, 2024)
